By NOAEL is commonly meant the highest tested level that showed no adverse finding.

The text below walks through data of EPA's ToxValDB 9.5 (doi:10.2903/j.efsa.2009.190r).

One data set has as its system Rattus norvegicus. To be noted: for NOAEL: inhalation.
The test system of another data set is Tagia sp. Particulars: acute; duration: 14 days; mortality.
The mark [1] stands for this setting: chronic, duration: 2 years, no effects.
[2] abbreviates: reproduction developmental, mortality.
The mark [3] stands for this setting: subchronic, duration: 90 days, no effects.

In the data set on Rattus norvegicus (acute, oral, mortality), `[Mg+2].[Mg+2].[Mg+2].[P-3].[P-3]` [Magnesium phosphide] gave an LD50 of 11.2 mg/kg-day. The figures for the NOAEL in the data set with Rattus norvegicus (setting [1]), in the data set on Rattus norvegicus (setting [2]) and in the data set on Rattus norvegicus (setting [3]) were 1.1 mg/kg-day, 1.9 mg/kg-day and 1.1 mg/kg-day, respectively. In the data set with Tagia sp., this molecule registered an LC50 of 664 mg/kg.
As to `P` [Phosphine], the NOAEL came to 1.1 mg/kg-day in the data set on Rattus norvegicus (setting [1]); 1.9 mg/kg-day in the data set with Rattus norvegicus (developmental, duration: 10 days, development); 1.9 mg/kg-day in the data set on Rattus norvegicus (setting [2]); 1.1 mg/kg-day in the data set on Rattus norvegicus (subchronic, duration: 90 days, mortality); 1.1 mg/kg-day in the data set on Rattus norvegicus (setting [3]).
